Test results: ChEMBL document CHEMBL1136919, “Synthesis and P2Y receptor activity of nucleoside 5'-phosphonate derivatives” (Bioorg Med Chem Lett, 2009)
Values belong to the molecule of their own block, whether it stands above or below them.

Key:
Format in all cases: functional, cell-based
P2Y purinoceptor 2 [1] = molecular target: T1, P2Y purinoceptor 2 (Homo sapiens, UniProt P41231); assay: Agonist activity at human P2Y2 receptor expressed in human 1321N1 cells coexpressing phospholipase C-activating G protein assessed as inositol phosphate production by scintillation proximity assay
T1 sequence (P41231 whole entry): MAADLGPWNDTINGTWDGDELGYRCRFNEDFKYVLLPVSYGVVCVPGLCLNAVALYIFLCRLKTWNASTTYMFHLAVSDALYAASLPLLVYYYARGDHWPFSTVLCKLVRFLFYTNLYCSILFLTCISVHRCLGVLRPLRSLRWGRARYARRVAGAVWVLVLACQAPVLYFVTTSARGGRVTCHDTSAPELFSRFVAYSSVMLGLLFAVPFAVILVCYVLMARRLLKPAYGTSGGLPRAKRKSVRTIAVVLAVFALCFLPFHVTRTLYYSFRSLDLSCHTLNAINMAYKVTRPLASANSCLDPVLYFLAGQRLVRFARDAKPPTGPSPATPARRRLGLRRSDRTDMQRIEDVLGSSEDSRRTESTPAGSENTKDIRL

P2Y purinoceptor 6 [2] = molecular target: T2, P2Y purinoceptor 6 (Homo sapiens, UniProt Q15077); assay: Agonist activity at human P2Y6 receptor expressed in human 1321N1 cells coexpressing phospholipase C-activating G protein assessed as inositol phosphate production by scintillation proximity assay
T2 sequence (Q15077 whole entry): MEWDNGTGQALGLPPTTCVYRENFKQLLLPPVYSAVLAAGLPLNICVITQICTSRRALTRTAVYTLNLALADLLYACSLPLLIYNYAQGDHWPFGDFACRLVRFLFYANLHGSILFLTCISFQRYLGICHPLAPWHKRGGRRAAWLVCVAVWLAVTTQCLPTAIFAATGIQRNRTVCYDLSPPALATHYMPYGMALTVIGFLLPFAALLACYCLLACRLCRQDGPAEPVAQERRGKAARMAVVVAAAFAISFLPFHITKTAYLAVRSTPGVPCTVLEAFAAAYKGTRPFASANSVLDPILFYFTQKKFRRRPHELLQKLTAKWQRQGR

P2Y purinoceptor 2 [3] = molecular target: T1, P2Y purinoceptor 2; assay: Agonist activity at human P2Y2 receptor expressed in human 1321N1 cells coexpressing phospholipase C-activating G protein assessed as inositol phosphate production by scintillation proximity assay relative to UTP
P2Y purinoceptor 2 [4] = molecular target: T1, P2Y purinoceptor 2; assay: Agonist activity at human P2Y2 receptor expressed in human 1321N1 cells coexpressing phospholipase C-activating G protein assessed as inositol phosphate production at 10 uM by scintillation proximity assay
[5] = molecular target: P2Y purinoceptor 4 (Homo sapiens) (UniProt P51582); assay: Agonist activity at human P2Y4 receptor expressed in human 1321N1 cells coexpressing phospholipase C-activating G protein assessed as inositol phosphate production at 10 uM by scintillation proximity assay
P2Y purinoceptor 4 (Homo sapiens), sequence (P51582 whole entry): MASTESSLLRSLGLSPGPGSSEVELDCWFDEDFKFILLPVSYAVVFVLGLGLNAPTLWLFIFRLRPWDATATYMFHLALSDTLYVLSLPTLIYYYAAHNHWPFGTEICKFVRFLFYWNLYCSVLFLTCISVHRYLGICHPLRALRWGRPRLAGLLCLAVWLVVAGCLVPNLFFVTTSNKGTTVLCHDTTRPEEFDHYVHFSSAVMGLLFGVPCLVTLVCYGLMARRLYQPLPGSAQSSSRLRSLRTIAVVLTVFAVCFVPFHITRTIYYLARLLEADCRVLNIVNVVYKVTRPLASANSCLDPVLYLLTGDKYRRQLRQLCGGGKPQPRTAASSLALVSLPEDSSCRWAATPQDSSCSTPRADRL

P2Y purinoceptor 6 [6] = molecular target: T2, P2Y purinoceptor 6; assay: Agonist activity at human P2Y6 receptor expressed in human 1321N1 cells coexpressing phospholipase C-activating G protein assessed as inositol phosphate production at 10 uM by scintillation proximity assay

SMILES: O=c1ccn([C@@H]2O[C@H](CP(=O)(O)OP(=O)(O)O)[C@@H](O)[C@H]2O)c(=O)[nH]1
- EC50 (P2Y purinoceptor 2 [1]): 3400 nM
- EC50 (P2Y purinoceptor 6 [2]): 1900 nM
- Activity (P2Y purinoceptor 2 [3]): 50%

SMILES: O=c1ccn([C@@H]2O[C@H](CP(=O)(O)OP(=O)(O)OP(=O)(O)O)[C@@H](O)[C@H]2O)c(=O)[nH]1
- EC50 (P2Y purinoceptor 2 [1]): 8600 nM

SMILES: O=c1ccn([C@@H]2O[C@H](COP(=O)(O)OP(=O)(O)C[C@H]3O[C@@H](n4ccc(=O)[nH]c4=O)[C@H](O)[C@@H]3O)[C@@H](O)[C@H]2O)c(=O)[nH]1
- Emax (P2Y purinoceptor 2 [4]): < 50%

SMILES: O=c1ccn([C@@H]2O[C@H](COP(=O)(O)OP(=O)(O)OP(=O)(O)O)[C@@H](O)[C@H]2O)c(=O)[nH]1
- EC50 (P2Y purinoceptor 6 [6]): > 10000 nM

The remaining lines, values ahead:

- EC50 (P2Y purinoceptor 2 [1]): 1000 nM
- Emax [5]: < 50%
SMILES: O=c1ccn([C@@H]2O[C@H](/C=C/P(=O)(O)OP(=O)(O)OP(=O)(O)O)[C@@H](O)[C@H]2O)c(=O)[nH]1

- EC50 (P2Y purinoceptor 2 [1]): 1600 nM
- Activity (P2Y purinoceptor 2 [3]): < 50%
SMILES: O=c1ccn([C@@H]2O[C@H](CCP(=O)(O)O)[C@@H](O)[C@H]2O)c(=O)[nH]1

- EC50 (P2Y purinoceptor 2 [1]): 1400 nM
- Emax [5]: < 50%
SMILES: Nc1ncnc2c1ncn2[C@@H]1O[C@H](CP(=O)(O)OP(=O)(O)OP(=O)(O)O)[C@@H](O)[C@H]1O
